Assay [1] deals with compensatory renal growth. The following applies: in words; cited from earlier work. As to the method: The 14-residue N-terminal Edman sequence EPL001 was determined in the context of a polypeptide candidate of m/z ~7,500 (‘Candidate 7500’) in MALDI-TOF mass spectrometry (MS) and a corresponding band in SDS polyacrylamide gel electrophoresis, implying a chain of ~70 aa for the native molecule. In spite of comprising only 20% of Candidate 7500, EPL001 surpris ...

The subject of the next assay is PNT2 cells. The experiment in a line: MTS colorimetric viable cell assay, PNT2. The class given is cell-based, human. The following applies: 30 μM, 27h, 492 nm, triplicate. As to the method: Assays involving a range of peptides from 14mer down to 6mers assessed total viable PC3 or PNT2 cells using a 96-well plate MTS colorimetric assay (CellTiter 96 Aqueous One Solution Cell Proliferation Assay, Promega, Southampton, UK), with absorbance measured at 492 nm. Cells were seeded at 8,000 per well and grown for 27h. Peptides were administered at the outset to a final concentration of 30 μM (in 2 μl) to samples in triplicate. (A higher dosage was used than in the 14mer peptides study to shorten the timecourse of response.) Controls received buffer. Data are OD mean +/ − SEM, with statistical analysis by two tailed t-test. A time course study of the 14mers on PC3s, using the same technique, involved measurements at 24h and 48h.
Fig 5 Effects of a range of peptides on human prostate cancer cell growth in vitro. Assays involved a range of peptides from 14mers down to 6mers (Table 1), with viable cells assessed using a 96-well plate MTS colorimetric assay. Absorbance measured at 492 nm. Cells were seeded at 8,000 per well and grown for 27h. Peptides were administered at the outset to a final concentration of 30 μM (in 2 μl) to samples in triplicate. Controls received buffer. Data are OD mean +/- SEM, with statistical analysis by two tailed t-test. * p<0.05; **p<0.025.

The subject of assay [2] is hDPSC (Human Dental Pulp Derived Mesenchymal-Like Stem/Progenitor Cells). Also on record: method as in earlier work. The following applies: EPL001 0.15µM or EPL140 15µM, three days; cited from earlier work.
Another assay has as its system LNCaP cells. The experiment in a line: MTS viable cell assay, LNCaP (Epistem). Format: cell-based, human. The following applies: over 72h, single dose level. As to the method: Further assays on human prostate cancer cells were conducted at a contract research organisation (Epistem, Manchester, UK). LNCaP or DU145 cells seeded at 3,000 cells/well across a 96-well plate were cultured in RPMI (phenol red free), 10% FCS, 1% sodium pyruvate, Pen/strep and L-glutamine for 24h before exposure to peptides, at a single dose level in the case of LNCaPs or multiple dose levels in the case of DU145s. (For dose levels see Results.) Controls received vehicle (1% PBS). For the DU145s peptide administration was repeated after 24h. 72h after the first administration (DU145s) or only administration (LNCaP) total viable cell numbers were measured colorimetrically (MTS) using a CellTiter 96 AQueous One Solution Cell Proliferation Assay (Promega, Southampton, UK), following manufacturer’s instructions. Briefly, the media on the plates was replaced with the CellTiter reagent diluted 1:5 in DMEM. The plates were returned to the incubator for 3 hours before reading absorbance at 492 nm on a FLUORstar OPTIMA (BMG Labtech). CellTiter data are the absorbance minus background values (CellTiter plus DMEM), expressed as (OD mean +/− SEM). Statistical analysis was by ANOVA, Dunnett’s multiple comparisons test.
(In general: Tetrazolium dyes change colour on reduction, which living cells bring about.)

For the next assay, the system named is DU145 cells. The experiment in a line: MTS viable cell assay, DU145 (Epistem). Format: cell-based, human. As to conditions: DU145; 150 μM (highest concentration); 72h. In outline: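 DU145 or LNCaP cells, 3,000/well in RPMI with 10% FCS, grown 24 h, then peptide added: multiple dose levels, repeated after 24 h, for DU145; single dose level, once, for LNCaP; vehicle 1% PBS. MTS absorbance 492 nm at 72 h after first dose, background-subtracted OD mean±SEM; ANOVA with Dunnett's test.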

The text below walks through data of article PMC9714824, “Hexapeptides from mammalian inhibitory hormone hunt activate and inactivate nematode reproduction” (PLOS ONE, 2022).

For “MKPLTGKVKEFNNI [EPL001, 14mer master test peptide …; ovine provenance]”, the “Effect on rat compensatory renal growth” value in assay [1] is on record as “anti-organotrophic”. Further, the “Difference in percentage terms between control and test OD means” value with PNT2 cells was “+3.1%”. Also, in assay [2], the Bmal1 expression result is listed as “↑”, the OCN expression result is on record as “↓↓”, the PPARγ expression result is reported as “↓↓” and the Per2 expression result is “↑”. In addition, in assay [2], the Rev-ErbA expression entry is given as “↓” and the Sox9 expression entry is “(↓)”. Further, the “Reduction in test mean OD versus the vehicle control mean” value with LNCaP cells is -17.0%. The “Test mean OD vs control mean” value in the assay with DU145 cells is −16.5%.
